Experimental data from US9617221B2, “Kinase modulators for the treatment of cancer” (Synovo GmbH, priority 2010, dated 2017).

What was measured:
Assay type in all cases: cell-based, mice
T cells = assay: Proliferation of Con A-stimulated T cells; conditions: 10 μM
Protocol: (§1) Peritoneal macrophage or splenocytes (lymphocytes and macrophage) were harvested from donor mice using standard techniques. Cells were placed in culture and stimulated with either LPS (10 μg/mL) or concanavalin A 5 μg/mL (Sigma Chemical Co., St Louis, Mo.) in RPMI-1640 medium supplemented with antibiotics, […] 2-mercaptoethanol, 10 mm HEPES buffer and 10% fetal calf serum (FCS) (see Holan et al., 1985) to stimulate macrophage and T-cells respectively. Compounds were added from DMSO stock solutions to a final concentration of 50 μM or less with DMSO not exceeding 1% of total volume. After 72 h, cell supernatant was recovered and the cytokine levels were estimated by ELISA. The effect of compounds on cytokine production was recorded as follows: […]

IL-10 [1] = assay: IL-10 production by LPS-stimulated murine peritoneal macrophage (ELISA); conditions: for IL-10 by ELISA, % of solvent treated control: murine peritoneal macrophage; for IL-10 (LPS, Macrophages), amount of cytokine: 10 μM, 72 h
Protocol: as §1

IL-2 = IL-2 production by ConA-stimulated T cells; conditions: 10 μM, 72 h
Protocol: as §1

IFN-g = IFN-g production by ConA-stimulated T cells; conditions: 10 μM, 72 h
Protocol: as §1

IL-10 [2] = assay: IL-10 production by ConA-stimulated T cells; conditions: 10 μM, 72 h
Protocol: as §1

IL-6 = IL-6 production by LPS-stimulated macrophages; conditions: 10 μM, 72 h
Protocol: as §1

NO = NO production by LPS-stimulated macrophages; conditions: 10 μM, 72 h
B cells = assay: Proliferation of LPS-stimulated B cells; conditions: 10 μM

Row | SMILES | Proliferation (Con A, T cells) (T cells) | IL-10 by ELISA, % of solvent treated control (IL-10 [1]; 2 μM inhibitor in medium) | IL-10 by ELISA, % of solvent treated control (IL-10 [1]; 10 μM inhibitor in medium) | IL-10 (LPS, Macrophages), amount of cytokine (IL-10 [1]) | IL-10 by ELISA, % of solvent treated control (IL-10 [1]; 50 μM inhibitor in medium) | IL-2 (ConA, T cells), amount of cytokine (IL-2) | IFN-g (ConA, T cells), amount of cytokine (IFN-g) | IL-10 (ConA, T cells), amount of cytokine (IL-10 [2]) | IL-6 (LPS, Macrophages), amount of cytokine (IL-6) | NO (LPS, Macrophages), % of control treated with solvent alone (NO) | Proliferation (LPS, B cells) (B cells) | IL-10 by ELISA, % of solvent treated control (IL-10 [1]; 1.25 μM inhibitor in medium) | IL-10 by ELISA, % of solvent treated control (IL-10 [1]; 5 μM inhibitor in medium) | IL-10 by ELISA, % of solvent treated control (IL-10 [1]; 20 μM inhibitor in medium)
1 | CCC(C)Nc1cc(-c2[nH]c(SCC(O)COC(=O)CCCN(C)[C@H]3C[C@@H](C)O[C@@H](O[C@@H]4[C@@H](C)[C@H](O[C@H]5C[C@@](C)(OC)[C@@H](O)[C@H](C)O5)[C@@H](C)C(=O)O[C@H](CC)[C@@](C)(O)[C@H](O)[C@@H](C)N(C)C[C@H](C)C[C@@]4(C)O)[C@@H]3O)nc2-c2ccc(F)cc2)ccn1 (stereo partly drawn) [Compound 43d] | −2 % of control treated with solvent alone | 15 % of solvent treated control | −4 % of solvent treated control | −4 % of control treated with solvent alone | −4 % of solvent treated control | 0 % of control treated with solvent alone | 3 % of control treated with solvent alone | −2 % of control treated with solvent alone | 95 % of control treated with solvent alone | 52 % of control treated with solvent alone | −3 % of control treated with solvent alone | – | – | –
2 | CC[C@H]1OC(=O)[C@H](C)[C@@H](O[C@H]2C[C@@](C)(OC)[C@@H](O)[C@H](C)O2)[C@H](C)[C@@H](O[C@@H]2O[C@H](C)C[C@H](N(C)CCCC(=O)OCC(O)CSc3nc(-c4ccc(F)cc4)c(-c4ccnc(NC5CCOCC5)c4)[nH]3)[C@H]2O)[C@](C)(O)C[C@@H](C)CN(C)[C@H](C)[C@@H](O)[C@]1(C)O (stereo partly drawn) [Compound 43b] | −2 % of control treated with solvent alone | 27 % of solvent treated control | −4 % of solvent treated control | −4 % of control treated with solvent alone | −4 % of solvent treated control | 0 % of control treated with solvent alone | 0 % of control treated with solvent alone | −2 % of control treated with solvent alone | 94 % of control treated with solvent alone | 31 % of control treated with solvent alone | −3 % of control treated with solvent alone | – | – | –
3 | CC[C@H]1OC(=O)[C@H](C)[C@@H](O[C@H]2C[C@@](C)(OC)[C@@H](O)[C@H](C)O2)[C@H](C)[C@@H](O[C@@H]2O[C@H](C)C[C@H](N(C)CCCC(=O)OCC(O)CSc3nc(-c4ccc(F)cc4)c(-c4ccnc(NC(C)C(C)C)c4)[nH]3)[C@H]2O)[C@](C)(O)C[C@@H](C)CN(C)[C@H](C)[C@@H](O)[C@]1(C)O (stereo partly drawn) [Compound 43a] | 0 % of control treated with solvent alone | 16 % of solvent treated control | 2 % of solvent treated control | 2 % of control treated with solvent alone | 5 % of solvent treated control | 0 % of control treated with solvent alone | 3 % of control treated with solvent alone | 0 % of control treated with solvent alone | 15 % of control treated with solvent alone | 1 % of control treated with solvent alone | 2 % of control treated with solvent alone | – | – | –
4 | CC[C@H]1OC(=O)[C@H](C)[C@@H](O)[C@H](C)[C@@H](O[C@@H]2O[C@H](C)C[C@H](N(C)CCCC(=O)OCC(O)CSc3nc(-c4ccc(F)cc4)c(-c4ccnc(NC5CCOCC5)c4)[nH]3)[C@H]2O)[C@](C)(O)C[C@@H](C)CN(C)[C@H](C)[C@@H](O)[C@]1(C)O (stereo partly drawn) [Compound 43c] | 113 % of control treated with solvent alone | 18 % of solvent treated control | 7 % of solvent treated control | 7 % of control treated with solvent alone | −4 % of solvent treated control | 90 % of control treated with solvent alone | 72 % of control treated with solvent alone | 25 % of control treated with solvent alone | 95 % of control treated with solvent alone | 82 % of control treated with solvent alone | 2 % of control treated with solvent alone | – | – | –
5 | CCC1OC(=O)C(C)C(OC2CC(C)(OC)C(O)C(C)O2)C(C)C(OC2OC(C)CC(N(C)CCCCCC(=O)OCCO)C2O)C(C)(O)CC(C)CN(C)C(C)C(O)C1(C)O (stereo not drawn) [Compound 36] | 199 % of control treated with solvent alone | 88 % of solvent treated control | 116 % of solvent treated control | 116 % of control treated with solvent alone | 0 % of solvent treated control | 96 % of control treated with solvent alone | 99 % of control treated with solvent alone | 79 % of control treated with solvent alone | 91 % of control treated with solvent alone | 100 % of control treated with solvent alone | 3 % of control treated with solvent alone | – | – | –
6 | CCOC(=O)CCCN(C)C1CC(C)OC(OC2C(C)C(OC3CC(C)(OC)C(O)C(C)O3)C(C)C(=O)OC(CC)C(C)(O)C(O)C(C)N(C)CC(C)CC2(C)O)C1O (stereo not drawn) [Compound 27, 4-({2-[2-Ethyl-3,4,10-trihydroxy-13-(5-hydroxy-4-methoxy-4,6-dimethyl-tetrahydro-pyran-2-yloxy)-3,5,6,8,10,12,14-heptamethyl-15-oxo-1-oxa-6-aza-cyclopentadec-11-yloxy]-3-hydroxy-6-methyl-tetrahydro-pyran-4-yl}-methyl-amino)-butyric acid ethyl ester] | – | – | – | – | – | – | – | – | – | – | – | 132 % of solvent treated control | 106 % of solvent treated control | 17 % of solvent treated control
7 | CC[C@H]1OC(=O)[C@H](C)[C@@H](O[C@H]2C[C@@](C)(OC)[C@@H](O)[C@H](C)O2)[C@H](C)[C@@H](O[C@@H]2O[C@H](C)C[C@H](N(C)CCCC(=O)OCC(O)CSc3nc(-c4ccc(F)cc4)c(-c4ccnc(NC(C)C)c4)[nH]3)[C@H]2O)[C@](C)(O)C[C@@H](C)CN(C)[C@H](C)[C@@H](O)[C@]1(C)O (stereo partly drawn) [Compound 43f] | −8 % of control treated with solvent alone | −1 % of solvent treated control | −10 % of solvent treated control | −10 % of control treated with solvent alone | 27 % of solvent treated control | -1 % of control treated with solvent alone | 61 % of control treated with solvent alone | 0 % of control treated with solvent alone | 30 % of control treated with solvent alone | 2 % of control treated with solvent alone | −6 % of control treated with solvent alone | – | – | –
8 | CCC1OC(=O)C(C)C(OC2CC(C)(OC)C(O)C(C)O2)C(C)C(OC2OC(C)CC(N(C)CCCC(=O)OCC3CO3)C2O)C(C)(O)CC(C)CN(C)C(C)C(O)C1(C)O (stereo not drawn) [Compound 29] | – | – | – | – | – | – | – | – | – | – | – | 110 % of solvent treated control | 114 % of solvent treated control | 106 % of solvent treated control
